Data from ChEMBL document CHEMBL4184249, “Structural development of tetrachlorophthalimides as liver X receptor β (LXRβ)-selective agonists with improved aqueous solubility” (Bioorg Med Chem Lett, 2018).
Converted amounts (≈) assume the structure as drawn. The source made the active and inactive calls. No cut-off for these calls is given here.

Experiments:
[1] = biological target: T1, Oxysterols receptor LXR-alpha (Mus musculus) (UniProt Q9Z0Y9); experiment: Agonist activity at mouse LXRalpha expressed in HEK293 cells co-expressing CMX-beta-galactosidase at 30 uM incubated for 16 hrs by luciferase reporter gene assay; format: cell-based
T1 sequence (whole entry): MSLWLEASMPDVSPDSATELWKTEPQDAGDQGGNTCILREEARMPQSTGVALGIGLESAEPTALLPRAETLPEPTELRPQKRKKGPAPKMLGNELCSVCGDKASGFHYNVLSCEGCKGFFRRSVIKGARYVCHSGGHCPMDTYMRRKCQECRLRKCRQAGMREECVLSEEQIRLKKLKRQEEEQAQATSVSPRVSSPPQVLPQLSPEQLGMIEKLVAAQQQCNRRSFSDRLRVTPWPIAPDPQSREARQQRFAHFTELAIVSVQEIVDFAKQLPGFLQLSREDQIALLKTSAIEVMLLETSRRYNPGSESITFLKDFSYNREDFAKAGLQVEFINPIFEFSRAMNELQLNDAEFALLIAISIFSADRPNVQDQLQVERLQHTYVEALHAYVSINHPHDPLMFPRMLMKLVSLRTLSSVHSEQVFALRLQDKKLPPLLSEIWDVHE

[2] = biological target: T2, Oxysterols receptor LXR-alpha (Homo sapiens) (UniProt Q13133); experiment: Agonist activity at human LXRalpha expressed in HEK293 cells co-expressing CMX-beta-galactosidase at 30 uM incubated for 16 hrs by luciferase reporter gene assay; format: cell-based
T2 sequence (whole entry): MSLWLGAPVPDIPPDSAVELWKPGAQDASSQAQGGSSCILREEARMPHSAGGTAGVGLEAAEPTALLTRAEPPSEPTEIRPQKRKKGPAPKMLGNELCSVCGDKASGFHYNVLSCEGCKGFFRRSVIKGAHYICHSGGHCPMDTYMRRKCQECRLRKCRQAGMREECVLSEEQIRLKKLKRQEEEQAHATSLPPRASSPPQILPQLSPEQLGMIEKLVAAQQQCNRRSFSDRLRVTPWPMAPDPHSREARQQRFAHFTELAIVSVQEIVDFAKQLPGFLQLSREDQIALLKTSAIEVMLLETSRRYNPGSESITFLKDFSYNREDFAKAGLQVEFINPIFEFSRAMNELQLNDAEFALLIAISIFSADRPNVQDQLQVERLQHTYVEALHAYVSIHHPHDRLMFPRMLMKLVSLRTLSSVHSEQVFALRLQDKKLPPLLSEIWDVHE

[3] = biological target: T3, Oxysterols receptor LXR-beta (Homo sapiens, UniProt P55055); experiment: Agonist activity at human LXRbeta expressed in HEK293 cells co-expressing CMX-beta-galactosidase incubated for 16 hrs by luciferase reporter gene assay; format: cell-based
T3 sequence (P55055 whole entry): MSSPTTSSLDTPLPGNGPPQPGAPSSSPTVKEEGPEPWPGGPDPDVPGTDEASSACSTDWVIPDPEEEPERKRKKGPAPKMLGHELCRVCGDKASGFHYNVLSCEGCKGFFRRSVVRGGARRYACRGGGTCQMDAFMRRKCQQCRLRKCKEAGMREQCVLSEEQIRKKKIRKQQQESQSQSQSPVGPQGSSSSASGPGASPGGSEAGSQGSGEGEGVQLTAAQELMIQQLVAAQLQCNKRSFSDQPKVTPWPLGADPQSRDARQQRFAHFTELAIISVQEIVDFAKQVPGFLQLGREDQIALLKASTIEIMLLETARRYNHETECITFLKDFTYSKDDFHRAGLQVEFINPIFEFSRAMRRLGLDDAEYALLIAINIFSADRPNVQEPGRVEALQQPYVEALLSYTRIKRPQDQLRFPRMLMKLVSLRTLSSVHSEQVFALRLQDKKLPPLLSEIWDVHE

[4] = biological target: T4, Oxysterols receptor LXR-beta (Homo sapiens) (UniProt P55055); experiment: Agonist activity at human LXRbeta expressed in HEK293 cells co-expressing CMX-beta-galactosidase incubated for 16 hrs by luciferase reporter gene assay relative to T0901317; format: cell-based
T4 sequence (whole entry): T3 sequence (P55055 whole entry)

[5] = biological target: T5, Oxysterols receptor LXR-beta (Mus musculus) (UniProt Q60644); experiment: Agonist activity at mouse LXRbeta expressed in HEK293 cells co-expressing CMX-beta-galactosidase incubated for 16 hrs by luciferase reporter gene assay relative to T0901317; format: cell-based
T5 sequence (whole entry): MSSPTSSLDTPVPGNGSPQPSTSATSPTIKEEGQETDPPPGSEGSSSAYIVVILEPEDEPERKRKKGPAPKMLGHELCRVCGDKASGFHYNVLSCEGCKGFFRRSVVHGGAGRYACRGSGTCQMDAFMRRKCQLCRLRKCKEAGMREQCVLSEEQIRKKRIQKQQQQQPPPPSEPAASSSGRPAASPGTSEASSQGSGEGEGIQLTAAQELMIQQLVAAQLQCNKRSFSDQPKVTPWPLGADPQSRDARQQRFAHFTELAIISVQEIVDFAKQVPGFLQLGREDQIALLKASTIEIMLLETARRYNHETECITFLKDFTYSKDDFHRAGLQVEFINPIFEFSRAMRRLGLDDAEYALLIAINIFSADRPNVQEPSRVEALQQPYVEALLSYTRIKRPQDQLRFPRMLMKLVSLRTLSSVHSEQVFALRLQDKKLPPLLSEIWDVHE

[6] = biological target: T6, Oxysterols receptor LXR-beta (Mus musculus, UniProt Q60644); experiment: Agonist activity at mouse LXRbeta expressed in HEK293 cells co-expressing CMX-beta-galactosidase incubated for 16 hrs by luciferase reporter gene assay; format: cell-based
T6 sequence (Q60644 whole entry): T5 sequence (whole entry)

[7] = Aqueous solubility of the compound in EtOH: 1/15 M phosphate buffer at pH 7.4 1:1 by HPLC method; format: physicochemical
[8] = biological target: T4, Oxysterols receptor LXR-beta (Homo sapiens); experiment: Agonist activity at LXRbeta in human THP1 cells assessed as increase in ABCA1 mRNA expression at 1 uM by real-time quantitative RT-PCR method; format: cell-based
[9] = biological target: T4, Oxysterols receptor LXR-beta (Homo sapiens); experiment: Agonist activity at human LXRbeta expressed in HEK293 cells co-expressing CMX-beta-galactosidase at 30 uM incubated for 16 hrs by luciferase reporter gene assay; format: cell-based
[10] = biological target: T4, Oxysterols receptor LXR-beta (Homo sapiens); experiment: Agonist activity at human LXRbeta expressed in HEK293 cells co-expressing CMX-beta-galactosidase incubated for 16 hrs at 30 uM by luciferase reporter gene assay relative to T0901317; format: cell-based

Activity [1]	Activity [2]	EC50 [3] [µM]	Efficacy [4] [%]	Efficacy [5] [%]	EC50 [6] [µM]	solubility [7] [ng/mL]	Activity [8]	Activity [9]	Efficacy [10] [%]	Compound
inactive	inactive	8.98	99							O=C1c2c(Cl)c(Cl)c(Cl)c(Cl)c2C(=O)N1c1ccccc1Oc1ccccc1
inactive	inactive	0.915	133	23	0.82					O=C1c2c(Cl)c(Cl)c(Cl)c(Cl)c2C(=O)N1c1ccccc1/C=C/c1ccsc1
	inactive	4.98	117							O=C1c2c(Cl)c(Cl)c(Cl)c(Cl)c2C(=O)N1c1ccccc1CCc1ccccc1
inactive	inactive	3.61	151	22	2.93					O=C1c2c(Cl)c(Cl)c(Cl)c(Cl)c2C(=O)N1c1ccccc1/C=C/c1nccs1
	inactive	4.96	141							O=C1c2c(Cl)c(Cl)c(Cl)c(Cl)c2C(=O)N1c1ccccc1/C=C/c1cccnc1
inactive	inactive	0.27	143	26	0.3	3.6 (≈ 7.77 nM)	Active			O=C1c2c(Cl)c(Cl)c(Cl)c(Cl)c2C(=O)N1c1ccccc1/C=C/c1ccccc1
	inactive	4.67	167							O=C1c2c(Cl)c(Cl)c(Cl)c(Cl)c2C(=O)N1c1ccccc1/C=C/c1ccco1
	inactive							inactive		O=C1c2c(Cl)c(Cl)c(Cl)c(Cl)c2C(=O)N1c1cccc2ccccc12
	inactive	1.73	153							O=C1c2c(Cl)c(Cl)c(Cl)c(Cl)c2C(=O)N1c1ccccc1-c1ccccc1
	inactive	> 10							104	O=C1c2c(Cl)c(Cl)c(Cl)c(Cl)c2C(=O)N1c1ccccc1/C=C\c1ccccc1
	inactive	> 10							35	O=C1c2c(Cl)c(Cl)c(Cl)c(Cl)c2C(=O)N1c1ccccc1/C=C/c1ccncc1
	inactive	4.77	148							O=C1c2c(Cl)c(Cl)c(Cl)c(Cl)c2C(=O)N1c1ccccc1/C=C/c1ccccn1
inactive	inactive	8	109							O=C1c2c(Cl)c(Cl)c(Cl)c(Cl)c2C(=O)N1c1ccccc1Cc1ccccc1
